Experimental data from US4351948A, “Imidazole hydrazone derivatives” (priority 1980, dated 1982).
Counter-ions that a name gives are not always drawn. Like-named read-outs stand apart in the source and are kept apart here.

How the values were obtained:
Experiment in all cases: Antianaerobic activity, MIC by standard broth dilution method (Table II)
Format in all cases: cell-based
[1] = test system: T. vaginalis ATCC 30001; conditions: Trichomonas vaginalis, ATCC30001, 24 h, read-out: Minimal Inhibitory Concentration (MIC)
Protocol: (§1) The activity of the compounds identified in the Table II below was tested for antianaerobic activity against one strain of Bacteroides fragilis, one strain of Bacteroides uniformis, one strain of Clostridium sporogenes and one strain of Trichomonas vaginalis as the test organism. The methods used involved determining the minimum inhibitory concentration by the standard broth dilution method. […] For convenience the compounds are referred to by an internal reference number (an HC number) and this is correlated with the number of the Example wherein its production is described.

[2] = test system: B. uniformis ATCC 8492; conditions: Bacteroides uniformis, ATCC8492, 24 h, read-out: Minimal Inhibitory Concentration (MIC)
Protocol: as §1

[3] = test system: B. fragilis ATCC 23745; conditions: Bacteroides fragilis, ATCC23745, 24 h, read-out: Minimal Inhibitory Concentration (MIC)
Protocol: as §1

[4] = test system: C. sporogenes ATCC 19404; conditions: Clostridium sporogenes, ATCC19404, 24 h
Protocol: The activity of the compounds identified in the Table II below was tested for antianaerobic activity against one strain of Bacteroides fragilis, one strain of Bacteroides uniformis, one strain of Clostridium sporogenes and one strain of Trichomonas vaginalis as the test organism. The methods used involved determining the minimum inhibitory concentration by the standard broth dilution method. The values for metronidazole (2-methyl-5-nitro-1H-imidazole-1-ethanol) are given above for reference purposes. For convenience the compounds are referred to by an internal reference number (an HC number) and this is correlated with the number of the Example wherein its production is described.

[5] = Test 1, read-out: Minimal Inhibitory Concentration (MIC)
[6] = Test 2, read-out: Minimal Inhibitory Concentration (MIC)
[7] = Test 3, read-out: Minimal Inhibitory Concentration (MIC)

## Cl.FC(F)(F)c1ccc(C(Cn2ccnc2)=NNc2c(Cl)cccc2Cl)cc1 [HC-438, 1-(4-trifluoromethylphenyl)-2-(1H-imidazol-1-yl)ethanone, 2,6-dichlorophenylhydrazone, hydrochloride]
[1]; Test 1
  MIC: 25 µg/mL
[1]; Test 2
  MIC: 50 µg/mL
[1]; Test 3
  MIC: 75 µg/mL
[2]; Test 1
  MIC: 5 µg/mL
[2]; Test 2
  MIC: 5 µg/mL
[2]; Test 3
  MIC: 5 µg/mL
[3]; Test 1
  MIC: 5 µg/mL
[3]; Test 2
  MIC: 7.5 µg/mL
[3]; Test 3
  MIC: 5 µg/mL
[4]; [5]
  MIC: 2.5 µg/mL
[4]; [6]
  MIC: 7.5 µg/mL
[4]; [7]
  MIC: 2.5 µg/mL

## CC(C(=NNc1c(Cl)cccc1Cl)c1ccc(Cl)cc1)n1ccnc1 (stereo not drawn) [HC-403, 1-(4-chlorophenyl)-2-(1H-imidazol-1-yl)propanone, 2,6-dichlorophenylhydrazone, hydrochloride]
[1]; Test 1
  MIC: < 50 µg/mL
[1]; Test 2
  MIC: 7.5 µg/mL
[1]; Test 3
  MIC: < 50 µg/mL
[2]; Test 1
  MIC: 2.5 µg/mL
[2]; Test 2
  MIC: 2.5 µg/mL
[2]; Test 3
  MIC: 2.5 µg/mL
[3]; Test 1
  MIC: 5 µg/mL
[3]; Test 2
  MIC: 2.5 µg/mL
[3]; Test 3
  MIC: 5 µg/mL
[4]; [6]
  MIC: 7.5 µg/mL
[4]; read-out: Minimal Inhibitory Concentration (MIC), Test 1
  MIC: 1 µg/mL
[4]; read-out: Minimal Inhibitory Concentration (MIC), Test 3
  MIC: 50 µg/mL

## Cl.Clc1cccc(Cl)c1NN=C(Cn1ccnc1)c1ccc(Br)cc1 [HC-364, 1-(4-bromophenyl)-2-(1H-imidazol-1-yl)ethanone, 2,6-dichlorophenylhydrazone, hydrochloride]
[1]; Test 1
  MIC: 50 µg/mL
[1]; Test 2
  MIC: 50 µg/mL
[1]; Test 3
  MIC: 50 µg/mL
[2]; Test 1
  MIC: 10 µg/mL
[2]; Test 2
  MIC: 2.5 µg/mL
[2]; Test 3
  MIC: 2.5 µg/mL
[3]; Test 1
  MIC: 10 µg/mL
[3]; Test 2
  MIC: 2.5 µg/mL
[3]; Test 3
  MIC: 5 µg/mL
[4]; [5]
  MIC: 10 µg/mL
[4]; [6]
  MIC: 5 µg/mL
[4]; [7]
  MIC: 25 µg/mL

## Cl.Clc1ccc(NN=C(Cn2ccnc2)c2ccccc2)cc1Cl [HC-442, 1-phenyl-2-(1H-imidazol-1-yl)ethanone, 3,4-dichlorophenylhydrazone, hydrochloride]
[1]; Test 1
  MIC: 50 µg/mL
[1]; Test 2
  MIC: 75 µg/mL
[1]; Test 3
  MIC: 100 µg/mL
[2]; Test 1
  MIC: 2.5 µg/mL
[2]; Test 2
  MIC: 5 µg/mL
[2]; Test 3
  MIC: 5 µg/mL
[3]; Test 1
  MIC: 2.5 µg/mL
[3]; Test 2
  MIC: 5 µg/mL
[3]; Test 3
  MIC: 5 µg/mL
[4]; [5]
  MIC: 5 µg/mL
[4]; [6]
  MIC: 2.5 µg/mL
[4]; [7]
  MIC: 2.5 µg/mL

## Cl.FC(F)(F)c1ccc(C(Cn2ccnc2)=NNc2c(Cl)cc(Cl)cc2Cl)cc1 [HC-482, 1-(4-trifluoromethylphenyl)-2-(1H-imidazol-1-yl)ethanone, 2,4,6-trichlorophenylhydrazone, hydrochloride]
[1]; Test 1
  MIC: 25 µg/mL
[1]; Test 2
  MIC: 25 µg/mL
[1]; Test 3
  MIC: 25 µg/mL
[2]; Test 1
  MIC: 2.5 µg/mL
[2]; Test 2
  MIC: 2.5 µg/mL
[2]; Test 3
  MIC: 2.5 µg/mL
[3]; Test 1
  MIC: 5 µg/mL
[3]; Test 2
  MIC: 5 µg/mL
[3]; Test 3
  MIC: 5 µg/mL
[4]; [5]
  MIC: 5 µg/mL
[4]; [6]
  MIC: 5 µg/mL
[4]; [7]
  MIC: 5 µg/mL

## Clc1ccc(NN=C(Cn2ccnc2)c2ccc(Br)cc2)c(Cl)c1 [HC-378, 1-(4-bromophenyl)-2-(1H-imidazol-1-yl) ethanone, 2,4-dichlorophenylhydrazone, hydrochloride]
[1]; Test 1
  MIC: > 50 µg/mL
[1]; Test 2
  MIC: > 50 µg/mL
[1]; Test 3
  MIC: 50 µg/mL
[2]; Test 1
  MIC: 10 µg/mL
[2]; Test 2
  MIC: 2.5 µg/mL
[2]; Test 3
  MIC: 5 µg/mL
[3]; Test 1
  MIC: 10 µg/mL
[3]; Test 2
  MIC: 2.5 µg/mL
[3]; Test 3
  MIC: 2.5 µg/mL
[4]; [5]
  MIC: 50 µg/mL
[4]; [6]
  MIC: 25 µg/mL
[4]; [7]
  MIC: 25 µg/mL

## Cl.Clc1ccc(C(Cn2ccnc2)=NNc2c(Cl)cc(Cl)cc2Cl)c(Cl)c1 [HC-420, 1-(2,4-dichlorophenyl)-2-(1H-imidazol-1-yl)ethanone, 2,4,6-trichlorophenylhydrazone, hydrochloride]
[1]; Test 1
  MIC: 50 µg/mL
[1]; Test 2
  MIC: 50 µg/mL
[1]; Test 3
  MIC: 50 µg/mL
[2]; Test 1
  MIC: 10 µg/mL
[2]; Test 2
  MIC: 1 µg/mL
[2]; Test 3
  MIC: 2.5 µg/mL
[3]; Test 1
  MIC: 10 µg/mL
[3]; Test 2
  MIC: 2.5 µg/mL
[3]; Test 3
  MIC: 2.5 µg/mL
[4]; [5]
  MIC: 10 µg/mL
[4]; [6]
  MIC: 2.5 µg/mL
[4]; [7]
  MIC: 2.5 µg/mL

## Cl.Clc1ccc(Cl)c(NN=C(Cn2ccnc2)c2ccccc2Cl)c1 [HC-469, 1-(2-chlorophenyl)-2-(1H-imidazol-1-yl)ethanone, 2,5-dichlorophenylhydrazone, hydrochloride]
[1]; Test 1
  MIC: 50 µg/mL
[1]; Test 2
  MIC: 75 µg/mL
[1]; Test 3
  MIC: 100 µg/mL
[2]; Test 1
  MIC: 5 µg/mL
[2]; Test 2
  MIC: 1 µg/mL
[2]; Test 3
  MIC: 2.5 µg/mL
[3]; Test 1
  MIC: 5 µg/mL
[3]; Test 2
  MIC: 5 µg/mL
[3]; Test 3
  MIC: 10 µg/mL
[4]; [5]
  MIC: 2.5 µg/mL
[4]; [6]
  MIC: 7.5 µg/mL
[4]; [7]
  MIC: 1 µg/mL

## Cl.Fc1ccccc1C(Cn1ccnc1)=NNc1cccc(Cl)c1Cl [HC-507, 1-(2-fluorophenyl)-2-(1H-imidazol-1-yl)ethanone, 2,3-dichlorophenylhydrazone, hydrochloride]
[2]; Test 1
  MIC: 5 µg/mL
[2]; Test 2
  MIC: 2.5 µg/mL
[3]; Test 1
  MIC: 2.5 µg/mL
[3]; Test 2
  MIC: 5 µg/mL
[4]; [5]
  MIC: 2.5 µg/mL
[4]; [6]
  MIC: 2.5 µg/mL

## CC(C(=NNc1ccc(Cl)cc1Cl)c1ccc(Cl)cc1)n1ccnc1 (stereo not drawn) [HC-433, 1(4-chlorophenyl)-2-(1H-imidazol-1-yl) propanone, 2,4-dichlorophenylhydrazone, hydrochloride]
[1]; Test 1
  MIC: 75 µg/mL
[1]; Test 2
  MIC: 50 µg/mL
[1]; Test 3
  MIC: 50 µg/mL
[2]; Test 1
  MIC: 0.5 µg/mL
[2]; Test 2
  MIC: 5 µg/mL
[2]; Test 3
  MIC: 2.5 µg/mL
[3]; Test 1
  MIC: 1 µg/mL
[3]; Test 2
  MIC: 2.5 µg/mL
[3]; Test 3
  MIC: 2.5 µg/mL
[4]; [5]
  MIC: 1 µg/mL
[4]; [6]
  MIC: 2.5 µg/mL
[4]; [7]
  MIC: 2.5 µg/mL

## Clc1ccc(NN=C(Cn2ccnc2)c2cc(Cl)ccc2Cl)c(Cl)c1 [HC-525, 1-(2,5-dichlorophenyl)-2-(1H-imidazol-1-yl) ethanone, 2,4-dichlorophenylhydrazone, hydrochloride]
[1]; Test 1
  MIC: 50 µg/mL
[1]; Test 2
  MIC: 50 µg/mL
[1]; Test 3
  MIC: 50 µg/mL
[2]; Test 1
  MIC: 2.5 µg/mL
[2]; Test 2
  MIC: 2.5 µg/mL
[2]; Test 3
  MIC: 2.5 µg/mL
[3]; Test 1
  MIC: 2.5 µg/mL
[3]; Test 2
  MIC: 2.5 µg/mL
[3]; Test 3
  MIC: 2.5 µg/mL
[4]; [5]
  MIC: 2.5 µg/mL
[4]; [6]
  MIC: 2.5 µg/mL
[4]; [7]
  MIC: 2.5 µg/mL

## Clc1ccc(NN=C(Cn2ccnc2)c2ccc(Cl)s2)c(Cl)c1 [HC-363, 1-(5-chlorothien-2-yl)-2-(1H-imidazol-1-yl) ethanone, 2,4-dichlorophenylhydrazone, hydrochloride]
[1]; Test 1
  MIC: 50 µg/mL
[1]; Test 2
  MIC: 50 µg/mL
[1]; Test 3
  MIC: 50 µg/mL
[2]; Test 1
  MIC: 2.5 µg/mL
[2]; Test 2
  MIC: 2.5 µg/mL
[2]; Test 3
  MIC: 2.5 µg/mL
[3]; Test 1
  MIC: 1 µg/mL
[3]; Test 2
  MIC: 2.5 µg/mL
[3]; Test 3
  MIC: 2.5 µg/mL
[4]; [5]
  MIC: 2.5 µg/mL
[4]; [6]
  MIC: 2.5 µg/mL
[4]; [7]
  MIC: 7.5 µg/mL

## COc1ccc(C(Cn2ccnc2)=NNc2cc(Cl)ccc2Cl)cc1.Cl [HC-464, 1-(4-methoxyphenyl)-2-(1H-imidazol-1-yl)ethanone, 2,5-dichlorophenylhydrazone, hydrochloride]
[1]; Test 1
  MIC: 10 µg/mL
[1]; Test 2
  MIC: 50 µg/mL
[1]; Test 3
  MIC: 50 µg/mL
[2]; Test 1
  MIC: 2.5 µg/mL
[2]; Test 2
  MIC: 2.5 µg/mL
[2]; Test 3
  MIC: 2.5 µg/mL
[3]; Test 1
  MIC: 2.5 µg/mL
[3]; Test 2
  MIC: 5 µg/mL
[3]; Test 3
  MIC: 5 µg/mL
[4]; [5]
  MIC: 2.5 µg/mL
[4]; [6]
  MIC: 5 µg/mL
[4]; [7]
  MIC: 2.5 µg/mL

## Cl.Clc1cc(Cl)c(NN=C(Cn2ccnc2)c2ccccc2Cl)c(Cl)c1 [HC-523, 1-(2-chlorophenyl)-2-(1H-imidazol-1-yl)ethanone, 2,4,6-trichlorophenylhydrazone, hydrochloride]
[1]; Test 1
  MIC: 50 µg/mL
[1]; Test 2
  MIC: 50 µg/mL
[1]; Test 3
  MIC: 50 µg/mL
[2]; Test 1
  MIC: 5 µg/mL
[2]; Test 2
  MIC: 2.5 µg/mL
[2]; Test 3
  MIC: 5 µg/mL
[3]; Test 1
  MIC: 7.5 µg/mL
[3]; Test 2
  MIC: 5 µg/mL
[3]; Test 3
  MIC: 7.5 µg/mL
[4]; [5]
  MIC: 2.5 µg/mL
[4]; [6]
  MIC: 2.5 µg/mL
[4]; [7]
  MIC: 5 µg/mL

## Clc1ccc(NN=C(Cn2ccnc2)c2ccc(Cl)cc2Cl)c(Cl)c1 [HC-380, 1-(2,4-dichlorophenyl)-2-(1H-imidazol-1-yl) ethanone, 2,4-dichlorophenylhydrazone, hydrochloride]
[1]; Test 1
  MIC: 50 µg/mL
[1]; Test 2
  MIC: 25 µg/mL
[1]; Test 3
  MIC: 25 µg/mL
[2]; Test 1
  MIC: 10 µg/mL
[2]; Test 2
  MIC: 2.5 µg/mL
[2]; Test 3
  MIC: 2.5 µg/mL
[3]; Test 1
  MIC: 10 µg/mL
[3]; Test 2
  MIC: 2.5 µg/mL
[3]; Test 3
  MIC: 2.5 µg/mL
[4]; [5]
  MIC: 10 µg/mL
[4]; [6]
  MIC: 2.5 µg/mL
[4]; [7]
  MIC: 2.5 µg/mL

## Cl.Fc1ccc(C(Cn2ccnc2)=NNc2ccc(Cl)c(Cl)c2)cc1 [HC-506, 1-(4-fluorophenyl)-2-(1H-imidazol-1-yl)ethanone, 3,4-dichlorophenylhydrazone, hydrochloride]
[2]; Test 1
  MIC: 5 µg/mL
[2]; Test 2
  MIC: 2.5 µg/mL
[3]; Test 1
  MIC: 5 µg/mL
[3]; Test 2
  MIC: 5 µg/mL
[4]; [5]
  MIC: > 50 µg/mL
[4]; [6]
  MIC: > 50 µg/mL
